Results as given in patent US20090111801A1, “SUBSTITUTED PYRAZINONE DERIVATIVES FOR USE AS A MEDICINE” (Janssen Pharmaceutica N.V., priority 2006, published 2009).
Counter-ions that a name gives are not always drawn.

How the values were obtained:
[1] = molecular target: T1, hα2A receptor (Homo sapiens, UniProt P08913); assay: Radioligand binding experiment for α2A-adrenoceptor ([3H]raulwolscine, CHO cell membranes); settings: [3H]raulwolscine binding, read-out: h-α2A pIC50 (converted)
T1 construct: expressed in transfected cells; host or cells: CHO cells, stably transfected; membrane preparation
T1 sequence (P08913 1-465): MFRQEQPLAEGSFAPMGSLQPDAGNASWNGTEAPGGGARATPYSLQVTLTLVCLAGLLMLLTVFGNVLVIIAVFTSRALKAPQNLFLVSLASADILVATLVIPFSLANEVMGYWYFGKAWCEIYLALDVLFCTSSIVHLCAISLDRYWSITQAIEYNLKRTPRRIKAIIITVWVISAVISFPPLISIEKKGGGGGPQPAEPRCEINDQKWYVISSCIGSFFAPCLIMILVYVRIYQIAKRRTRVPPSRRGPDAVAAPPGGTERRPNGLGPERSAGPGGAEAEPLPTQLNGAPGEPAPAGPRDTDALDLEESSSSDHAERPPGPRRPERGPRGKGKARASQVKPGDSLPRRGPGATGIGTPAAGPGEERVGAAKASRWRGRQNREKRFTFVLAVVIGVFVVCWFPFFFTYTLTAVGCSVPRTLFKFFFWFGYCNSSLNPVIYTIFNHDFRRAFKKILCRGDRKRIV

[2] = molecular target: T2, hα2C receptor (Homo sapiens, UniProt P18825); assay: Radioligand binding experiment for α2C-adrenoceptor ([3H]raulwolscine, CHO cell membranes); settings: [3H]raulwolscine binding, read-out: h-α2C pIC50 (converted)
T2 construct: expressed in transfected cells; host or cells: CHO cells, stably transfected; membrane preparation
T2 sequence (P18825 1-462): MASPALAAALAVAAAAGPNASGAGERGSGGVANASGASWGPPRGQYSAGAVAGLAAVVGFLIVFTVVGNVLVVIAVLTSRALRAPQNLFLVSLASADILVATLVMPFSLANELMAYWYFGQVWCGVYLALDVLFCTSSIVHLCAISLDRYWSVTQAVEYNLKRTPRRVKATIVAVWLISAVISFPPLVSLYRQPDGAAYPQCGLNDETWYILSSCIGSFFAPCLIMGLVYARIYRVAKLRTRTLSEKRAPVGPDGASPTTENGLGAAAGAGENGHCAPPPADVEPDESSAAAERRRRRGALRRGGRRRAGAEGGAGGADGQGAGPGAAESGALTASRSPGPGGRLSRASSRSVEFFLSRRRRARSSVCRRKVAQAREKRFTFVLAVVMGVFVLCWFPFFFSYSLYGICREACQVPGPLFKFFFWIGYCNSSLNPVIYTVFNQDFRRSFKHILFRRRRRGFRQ

[3] = molecular target: T3, 5HT-Transporter (Homo sapiens, UniProt P31645); assay: Binding experiment for the 5HT-transporter ([3H]paroxetine, human platelet membranes); settings: [3H]paroxetine 0.5 nM, read-out: h-5HTT pIC50 (converted)
T3 construct: Human platelet membranes (Oceanix Biosciences Corporation, Hanover, Md., USA) were thawed; tissue Oceanix Biosciences Corporation, Hanover, Md., USA; host or cells: human platelet membranes
In short: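 Filter-bound radioactivity from human platelet membranes incubated with [3H]paroxetine and test compound (buffer Tris-HCl 50 mM, 120 mM NaCl, 5 mM KCl) was counted.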

T3 sequence (P31645 whole entry): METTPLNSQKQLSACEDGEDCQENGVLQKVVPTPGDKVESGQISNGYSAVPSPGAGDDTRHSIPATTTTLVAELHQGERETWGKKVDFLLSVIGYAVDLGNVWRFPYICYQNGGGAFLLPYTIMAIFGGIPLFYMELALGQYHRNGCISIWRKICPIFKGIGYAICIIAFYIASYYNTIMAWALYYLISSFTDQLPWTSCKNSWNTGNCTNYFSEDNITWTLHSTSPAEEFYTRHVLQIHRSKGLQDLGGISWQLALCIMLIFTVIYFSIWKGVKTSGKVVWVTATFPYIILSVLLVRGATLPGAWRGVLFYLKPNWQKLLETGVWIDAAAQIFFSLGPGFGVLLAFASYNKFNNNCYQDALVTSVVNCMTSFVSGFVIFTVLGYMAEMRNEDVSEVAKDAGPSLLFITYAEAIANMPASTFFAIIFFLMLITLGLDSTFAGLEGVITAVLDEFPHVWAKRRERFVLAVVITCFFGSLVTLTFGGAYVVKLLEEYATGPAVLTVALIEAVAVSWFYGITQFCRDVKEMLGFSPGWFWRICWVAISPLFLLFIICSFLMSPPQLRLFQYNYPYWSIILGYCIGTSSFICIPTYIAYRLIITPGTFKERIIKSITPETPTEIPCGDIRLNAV

melting point	IC50 [1]	IC50 [2]	IC50 [3]	SMILES
231 °C				C/C(=C\c1ccccc1)CN1CCC(Nc2nccn(Cc3ccc(CN)cc3)c2=O)CC1 (as salt: HCl) [1-7]
270 °C				C/C(=C\c1ccccc1)CN1CCC(Nc2nccn(CCCNCc3ccccc3)c2=O)CC1 (as salt: HCl) [1-47]
294 °C				C/C(=C\c1ccccc1)CN1CCC(Nc2nccn(CCN3CCCCC3)c2=O)CC1 (as salt: HCl) [2-4]
67 °C				C/C(=C\c1ccccc1)CN1CCC(Nc2nccn(CC#CCN3C(=O)c4ccccc4C3=O)c2=O)CC1 (as salt: trifluoroacetate) [2-54]
286 °C	12.6 nM	2.51 nM	398 nM	C/C(=C\c1ccccc1)CN1CCC(Nc2nccn(Cc3ccc(CN)cc3)c2=O)CC1 [1-6]
254 °C	63.1 nM		6310 nM	C/C(=C\c1ccccc1)CN1CCC(Nc2nccn(CCCN(C)C)c2=O)CC1 [1-14]
128 °C	100 nM	15.8 nM	> 10000 nM	C/C(=C\c1ccccc1)CN1CCC(Nc2nccn(CC(=O)N(C)C)c2=O)CC1 [1-16]
160 °C	79.4 nM	3.98 nM	1260 nM	CC(=O)CNCCCn1ccnc(NC2CCN(C/C(C)=C/c3ccccc3)CC2)c1=O [1-37]
115 °C	20 nM	2 nM	501 nM	C/C(=C\c1ccccc1)CN1CCC(Nc2nccn(-c3ccc(CN(C)CCN(C)C)cc3)c2=O)CC1 [1-110]
103 °C	126 nM	31.6 nM	501 nM	C/C(=C\c1ccccc1)CN1CCC(Nc2nccn(Cc3ccc(CNC(=O)c4ccco4)cc3)c2=O)CC1 [1-152]
128 °C	63.1 nM	25.1 nM	794 nM	C/C(=C\c1ccccc1)CN1CCC(Nc2nccn(Cc3ccc(CNS(=O)(=O)c4ccccc4)cc3)c2=O)CC1 [1-159]
110 °C	158 nM	25.1 nM	1000 nM	CC(=O)c1ccc(S(=O)(=O)NCc2ccc(Cn3ccnc(NC4CCN(C/C(C)=C/c5ccccc5)CC4)c3=O)cc2)cc1 [1-165]
170 °C	126 nM	6.31 nM	5010 nM	C/C(=C\c1ccccc1)CN1CCC(Nc2nccn(CC(=O)N3CCCCC3)c2=O)CC1 [2-5]
99 °C	251 nM	126 nM	1260 nM	C/C(=C\c1ccccc1)CN1CCC(Nc2nccn(Cc3ccc(OC(F)(F)F)cc3)c2=O)CC1 [3-15]
112 °C	158 nM	15.8 nM	398 nM	C/C(=C\c1ccccc1)CN1CCC(Nc2nccn(Cc3ccccc3CS(=O)(=O)c3ccccc3)c2=O)CC1 [4-3]
	126 nM	50.1 nM	6310 nM	CCCn1ccnc(N2CCN(C/C(C)=C/c3ccccc3)CC2)c1=O [14-2]
	398 nM	158 nM	7940 nM	C/C(=C\c1ccccc1)CN1CCN(c2nccn(CC3CCCCC3)c2=O)CC1 [14-3]
	398 nM	63.1 nM	> 10000 nM	C/C(=C\c1ccccc1)CN1CCN(c2nccn(CC(=O)C(C)(C)C)c2=O)CC1 [14-4]
	1580 nM	158 nM	> 10000 nM	CN(C)CCn1ccnc(NC2CCN(C/C=C/c3ccccc3)CC2)c1=O [16-1]
	2510 nM	316 nM	> 10000 nM	CN(C)C(=O)Cn1ccnc(NC2CCN(C/C=C/c3ccccc3)CC2)c1=O [16-3]
	398 nM	39.8 nM	1260 nM	CC(C)(C)OC(=O)NCCCn1ccnc(NC2CCN(C/C=C/c3ccccc3)CC2)c1=O [16-4]

melting point	IC50 [1]	IC50 [2]	IC50 [3]	SMILES
	794 nM	398 nM	1260 nM	CC(C)(C)OC(=O)NCc1ccc(Cn2ccnc(NC3CCN(C/C=C/c4ccccc4)CC3)c2=O)cc1 [16-5]
	794 nM	63.1 nM	> 10000 nM	O=c1c(NC2CCN(C/C=C/c3ccccc3)CC2)nccn1CCN1CCCCC1 [16-6]
	3980 nM	398 nM	> 10000 nM	O=c1c(NC2CCN(C/C=C/c3ccccc3)CC2)nccn1CCN1CCOCC1 [16-7]
	501 nM	12.6 nM	200 nM	O=C1c2ccccc2C(=O)N1CCCn1ccnc(NC2CCN(C/C=C/c3ccccc3)CC2)c1=O [16-8]
	3160 nM	631 nM	> 10000 nM	COCCn1ccnc(NC2CCN(C/C=C/c3ccccc3)CC2)c1=O [16-9]
	1000 nM	200 nM	> 10000 nM	COC(=O)Cn1ccnc(NC2CCN(C/C=C/c3ccccc3)CC2)c1=O [16-10]
	794 nM	158 nM	631 nM	CCOC(=O)CCCCn1ccnc(NC2CCN(C/C=C/c3ccccc3)CC2)c1=O [16-11]
	794 nM	316 nM	2510 nM	CSCCn1ccnc(NC2CCN(C/C=C/c3ccccc3)CC2)c1=O [16-12]
	794 nM	200 nM	794 nM	O=c1c(NC2CCN(C/C=C/c3ccccc3)CC2)nccn1CCc1ccccc1 [16-14]
	631 nM	158 nM	794 nM	O=c1c(NC2CCN(C/C=C/c3ccccc3)CC2)nccn1Cc1ccccc1Br [16-15]
	501 nM	200 nM	1000 nM	O=c1c(NC2CCN(C/C=C/c3ccccc3)CC2)nccn1Cc1cccc(Br)c1 [16-16]
	501 nM	316 nM	794 nM	O=c1c(NC2CCN(C/C=C/c3ccccc3)CC2)nccn1Cc1ccc(Br)cc1 [16-17]
	251 nM	251 nM	398 nM	O=c1c(NC2CCN(C/C=C/c3ccccc3)CC2)nccn1Cc1ccc2ccccc2c1 [16-18]
	1580 nM	316 nM	5010 nM	O=c1c(NC2CCN(C/C=C/c3ccccc3)CC2)nccn1CC1CCCCO1 (centres unmarked) [16-19]
	2000 nM	251 nM	> 10000 nM	O=c1c(NC2CCN(C/C=C/c3ccccc3)CC2)nccn1Cc1ccncc1 [16-20]
	501 nM	126 nM	1000 nM	O=c1c(NC2CCN(C/C=C/c3ccccc3)CC2)nccn1Cc1ccc2ccccc2n1 [16-21]
	631 nM	316 nM	1260 nM	O=c1c(NC2CCN(C/C=C/c3ccccc3)CC2)nccn1CC1CCCCC1 [16-23]
	1000 nM	316 nM	> 10000 nM	CC(=O)Cn1ccnc(NC2CCN(C/C=C/c3ccccc3)CC2)c1=O [16-24]
	1000 nM	158 nM	> 10000 nM	CC(C)(C)C(=O)Cn1ccnc(NC2CCN(C/C=C/c3ccccc3)CC2)c1=O [16-25]
	1000 nM	200 nM	316 nM	C/C(=C\c1ccccc1)CN1CCC(Nc2nc(Cl)c(-c3cccc(Br)c3)[nH]c2=O)CC1 [17-1]
	794 nM	501 nM	1580 nM	COc1ccc(Cn2c(-c3cccc(Br)c3)c(Cl)nc(NC3CCN(C/C(C)=C/c4ccccc4)CC3)c2=O)cc1 [17-2]

SMILES	melting point	IC50 [1]	IC50 [2]	IC50 [3]
C/C(=C\c1ccccc1)CN1CCC(N(C)c2nccn(Cc3ccc(CN)cc3)c2=O)CC1 [15-1]		25.1 nM	10 nM	501 nM
C/C(=C\c1ccccc1)CN1CCC(N(C)c2nccn(Cc3ccc(CN(C)C)cc3)c2=O)CC1 [15-2]		31.6 nM	3.16 nM	1000 nM
C/C(=C\c1ccccc1)CN1CCC(N(C)c2nccn(CCN3CCCCC3)c2=O)CC1 [15-3]		100 nM	20 nM	5010 nM
C/C(=C\c1ccccc1)CN1CCC(N(C)c2nccn(CCCO)c2=O)CC1 [15-4]		63.1 nM	39.8 nM	2510 nM
COCCOCCn1ccnc(N(C)C2CCN(C/C(C)=C/c3ccccc3)CC2)c1=O [15-5]		126 nM	39.8 nM	2000 nM
C/C(=C\c1ccccc1)CN1CCC(N(C)c2nccn(CC3CCCCO3)c2=O)CC1 (centres unmarked) [15-7]		79.4 nM	39.8 nM	3160 nM
